Experimental data: PMC10354055, “An optimized Nurr1 agonist provides disease-modifying effects in Parkinson’s disease models” (Nature Communications, 2023)
“And” between values parts separate entries of the source, which are not always exact repeats. Equal entries are not always repeated. Where two headings read alike, the source gives them in different places.

Tests used:
[1] = tested on: TH+ neurons; assay: Primary rat VM neuron-glia co-culture, TH+ neurons (ICC); type: cell-based
Procedure: After blocking with 10% normal donkey serum (NDS) and 0.1% Triton X-100 solution for 1 h at room temperature, cells were incubated with primary antibodies against TH (1:1,000; Pel Freez, P40401) and Iba-1 (1:500; Abcam, ab5076) in 1% NDS and 0.1% Triton X-100 solution for overnight at 4 °C. […] Fluorescence images were taken using a KEYENCE microscope (BZ-X800; KEYENCE).

[2] = tested on: N27-A cells; assay: Autophagic flux, Western blot LC3B and p62, N27-A cells; type: cell-based, rat; conditions: for Relative LC3B-II experession (normalized to β-actin): individual replicates; for autophagic flux (in words): N27-A
Procedure: Experiments were confirmed by duplicate measurements of the same sample. Quantification of immunoreactive bands was performed using ImageJ software (NIH, Bethesda, MD, USA) and expressed as a relative ratio against β-actin.
The band intensities were quantified using ImageJ and normalized against β-actin.

[3] = tested on: MPTP-induced male mice; assay: IHC/stereology of TH+ fibers, TH+ DA neurons and NeuN+ neurons, MPTP-induced mice; type: in vivo, mouse
Procedure: MPTP (Sigma-Aldrich) was intraperitoneally (i.p.) injected (30 mg/kg) for 5 days (Day 1-5). […] To test dyskinetic involuntary behavior, an L-DOPA injected group was included, which received 50 mg/kg of L-DOPA and 15 mg/kg of benserazide (Sigma-Aldrich) (i.p.) for 16 days (Day 1–16). All compounds were administered 6 h post-MPTP injection to avoid any effect of compounds on the MPTP metabolism in the brain. Motor and non-motor related behavior tests were performed on the following days as described in Fig. 4a in an assessor- and observer-blinded fashion. Pre-training and baseline setup for motor-related behaviors were performed 3 days prior to the injections. Mice were sacrificed and subjected to immunohistochemistry. Mice were housed at the Animal Care Facilities of McLean Hospital under a 12-h light/12-h dark cycle, ambient temperature and humidity. Animals were handled in accordance with McLean Hospital’s Institutional Animal Care and Use Committee (Protocol #: 2015N000002) and followed National Institutes of Health guidelines.
Images were acquired using a KEYENCE microscope and quantified as the number or optical density of immunoreactive cells using ImageJ software.
The numbers of TH^+ DA neurons, NeuN^+ neurons, pS129 αSyn^+ cells in the SN and Iba-1^+ microglia in the SN and striatum were stereologically counted in six coronal sections (30 µm thickness) taken every 6th section (180 µm intervals) for each brain. The boundaries of the SN and striatum were delimited at low magnification (4X) to estimate each total area. Immunoreactive cells were counted with images taken at high magnification (×40) by a single blinded investigator. The group mean of the total number of immunoreactive cells from each brain was transformed as percentage of the number in the control group (%). For AAV-αSyn-induced mice, the group mean of the total number of cells in the ipsilateral side was transformed as a percentage of that observed in the contralateral side.

[4] = BBB permeability assay, plasma and brain LC-MS/MS after oral administration; type: in vivo, rat;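 as to plasma: oral dosing solution 2 mg/mL in saline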
Procedure: Final dose of […] 4A7C-301 dissolved in saline was orally administrated to SD rats (male, 7-9 weeks, n = 3 per group). To measure the 4A7C-301 concentration in the brain, rats were fully exsanguinated to remove residual blood prior to brain collection. Brain and blood samples were collected at 0.25, 0.5, 1, 2, 4, 6, 8, and 24 h after administration. A robust LC-MS/MS method was developed with the lower limit of quantification (LLOQ) of 1 ng/mL and 0.5 ng/mL for the quantification of 4A7C-301 in plasma and brain, respectively. The accuracy of all accepted QC samples of 4A7C-301 at low, middle, and high concentration levels met the acceptance criteria. Isolated brains were homogenized in PBS as brain weight (g) to PBS volume (mL) ratio 1:3. The desired serial concentrations of working solutions were achieved by diluting stock solution of analyte with 50% acetonitrile in water solution. 5 µL of working solutions (5, 10, 20, 50, 100, 500, 1000, 5000 ng/mL) were added to 50 μl of male SD rat blank brain homogenate to achieve calibration standards of 0.5 ~ 500 ng/mL (0.5, 1, 2, 5, 10, 50, 100, 500 ng/mL) in a total volume of 55 μl. Four quality control samples at 1.5 ng/mL, 3 ng/mL, 50 ng/mL and 400 ng/mL for brain homogenate were prepared independently of those used for the calibration curves. These QC samples were prepared on the day of analysis in the same way as calibration standards. 55 μl of standards, 55 μl of QC samples and 55 μl of unknown samples (50 µL of brain homogenate with 5 µL of blank solution) were added to 200 μl of acetonitrile containing IS mixture for precipitating protein, respectively. Then the samples were vortexed for 30 seconds. After centrifugation at 4 °C, 4000 x g for 15 min, the supernatant was diluted 5 times with water. 25 µl of diluted supernatant was injected into the LC-MS/MS system (AB API 5500 + LC-MS/MS instruments (Serial No. EX224682008)) for quantitative analysis. To measure the 4A7C-301 concentration in the plasma, serum samples were obtained from the collected blood and analyzed by LC-MS/MS system as indicated above.

[5] = time 00:15:00, individual replicates
[6] = time 0:30:00, individual replicates
[7] = time 1:00:00, individual replicates
[8] = time 2:00:00, individual replicates
[9] = time 4:00:00, individual replicates
[10] = time 6:00:00, individual replicates
[11] = time 8:00:00, individual replicates
[12] = time 24:00:00, individual replicates

**Q.** Which results are given for `CCN1CCN(c2cc(N3CCN(CC)CC3)nc(NCCNc3ccnc4cc(Cl)ccc34)n2)CC1` [4A7C-301, N^1-(4,6-bis(4-ethylpiperazin-1-yl)pyrimidin-2-yl)-N^2-(7-chloroquinolin-4-yl)ethane-1,2-diamine]?
**A.** concentration of maximal effect on mDAN rescue ([1]; MPP+ or LPS): 500 nM; concentration of maximal effect, times lower than CQ ([1]; mDAN rescue): 40 times; Relative LC3B-II experession (normalized to β-actin) ([2]; Figure 3f, w/ MPP+, 0h): 0.779 and 0.690 and 0.799; Relative LC3B-II experession (normalized to β-actin) ([2]; Figure 3f, w/ MPP+, 4h): 1.160 and 0.971 and 1.153; Relative LC3B-II experession (normalized to β-actin) ([2]; Figure 3f, w/o MPP+, 0h): 0.728 and 0.654 and 0.714; Relative LC3B-II experession (normalized to β-actin) ([2]; Figure 3f, w/o MPP+, 4h): 0.866 and 0.789 and 0.873; Relative LC3B-II experession (normalized to β-actin) ([2]; Figure 3g, w/ MPP+, 0h): 1.116 and 1.094 and 1.285; Relative LC3B-II experession (normalized to β-actin) ([2]; Figure 3g, w/ MPP+, 4h): 0.639 and 0.745 and 0.861; Relative LC3B-II experession (normalized to β-actin) ([2]; Figure 3g, w/o MPP+, 0h): 1.157 and 1.166 and 1.326; Relative LC3B-II experession (normalized to β-actin) ([2]; Figure 3g, w/o MPP+, 4h): 0.499 and 0.504 and 0.579; autophagic flux (in words) ([2]; MPP+ 1 mM): significantly restored autophagy; autophagic flux (in words) ([2]; without MPP+): proceeded; TH+ neurons in SNpc (% of control) ([3]; Figure 4j, MPTP-induced mice, individual animal values): 63.18 % of control and 108.74 % of control and 134.92 % of control and 132.65 % of control and 112.51 % of control and 66.45 % of control and 53.87 % of control; NeuN+ neurons in SNpc (% of control) ([3]; Figure 4k, MPTP-induced mice, individual animal values): 85.48 % of control and 97.85 % of control and 98.38 % of control and 115.18 % of control; TH fiber density in STR (% of control) ([3]; Figure 4h, MPTP-induced mice, individual animal values): 116.18 % of control and 48.63 % of control and 93.47 % of control and 82.29 % of control and 106.49 % of control and 100.23 % of control and 91.26 % of control; TH+ fibers in STR, TH+ DA neurons and NeuN+ neurons in SN (in words) ([3]; compared to MPTP only group): significantly retained; brain permeability (in words) ([4]; SD rats, oral, 20 mg/kg, plasma and brain homogenates): penetrated into the brain well; concentration at […] ([4]; male, SD, rat, brain, oral, 2 mg/mL, time 00:15:00, individual replicates, read-out: Brain): 0 ng/g; concentration at 0.5 h ([4]; male, SD, rat, brain, oral, 2 mg/mL, time 0:30:00, individual replicates, read-out: Brain): 0 ng/g; concentration at 8 h ([4]; male, SD, rat, brain, oral, 2 mg/mL, time 8:00:00, individual replicates): 28.7 ng/g; concentration at […] ([4]; male, SD, rat, plasma, oral, 2 mg/mL, time 00:15:00, individual replicates, read-out: Plasma): 0 ng/mL; concentration at 0.5 h ([4]; male, SD, rat, plasma, oral, 2 mg/mL, time 0:30:00, individual replicates, read-out: Plasma): 0 ng/mL; Brain [4, 5]: 0 ng/g; Plasma [4, 5]: 0 ng/mL; Brain [4, 6]: 0 ng/g; Plasma [4, 6]: 0 ng/mL; B/P ratio [4, 7]: 0.033 and 0.167 and 0.126; Brain [4, 7]: 3.39 ng/g and 9.12 ng/g and 2.65 ng/g; Plasma [4, 7]: 20.3 ng/mL and 72.3 ng/mL and 80.8 ng/mL; B/P ratio [4, 8]: 0.395 and 0.077 and 0.505; Brain [4, 8]: 7.24 ng/g and 13.5 ng/g and 6 ng/g; Plasma [4, 8]: 94 ng/mL and 26.7 ng/mL and 15.2 ng/mL; B/P ratio [4, 9]: 0.137 and 0.126 and 1.648; Brain [4, 9]: 27.2 ng/g and 13.5 ng/g and 7.16 ng/g; Plasma [4, 9]: 216 ng/mL and 8.18 ng/mL and 52.2 ng/mL; B/P ratio [4, 10]: 0.074 and 0.166 and 2.055; Brain [4, 10]: 19.9 ng/g and 24 ng/g and 4.36 ng/g; Plasma [4, 10]: 120 ng/mL and 11.7 ng/mL and 58.6 ng/mL; B/P ratio [4, 11]: 0.112 and 3.845 and 0.261; Brain [4, 11]: 16.8 ng/g and 20.2 ng/g; Plasma [4, 11]: 7.47 ng/mL and 64.3 ng/mL and 180 ng/mL; B/P ratio [4, 12]: 10.245 and 0.957 and 6.289; Brain [4, 12]: 61.6 ng/g and 20 ng/g and 36 ng/g; Plasma [4, 12]: 64.4 ng/mL and 3.18 ng/mL and 3.51 ng/mL
